Laboratory results: ChEMBL document CHEMBL5584246, “Novel dihydropyrimidines as promising EGFR & HER2 inhibitors: Insights from experimental and computational studies” (Eur J Med Chem, 2024)

What was measured:
[1] = test system: MCF7; assay: Cytotoxicity against human MCF7 cells assessed as inhibition of cell growth measured after 3 days by MTT assay; format: functional, cell-based; settings: MCF7, 72 h
[2] = Cytotoxicity against African green monkey Vero cells assessed as inhibition of cell growth measured after 3 days by MTT assay; format: toxicity, cell-based; settings: African green monkey (Chlorocebus sabaeus)
[3] = Inhibition of HER2 expression in human MCF7 cells assessed as negative expression region (M1) at 100 nM incubated for 24 hrs by flow cytometry analysis (reference value: 0.98%); format: functional
[4] = Inhibition of EGFR expression in human MCF7 cells assessed as positive expression region (M2) at 500 nM incubated for 24 hrs by flow cytometry analysis (reference value: 99.36%); format: functional
[5] = Inhibition of HER2 expression in human MCF7 cells assessed as negative expression region (M1) at 1000 nM incubated for 24 hrs by flow cytometry analysis (reference value: 0.98%); format: functional
[6] = Inhibition of EGFR expression in human MCF7 cells assessed as positive expression region (M2) at 50 nM incubated for 24 hrs by flow cytometry analysis (reference value: 99.36%); format: functional
[7] = Inhibition of EGFR expression in human MCF7 cells assessed as negative expression region (M1) at 500 nM incubated for 24 hrs by flow cytometry analysis (reference value: 0.66%); format: functional
[8] = Inhibition of HER2 expression in human MCF7 cells assessed as negative expression region (M1) at 500 nM incubated for 24 hrs by flow cytometry analysis (reference value: 0.98%); format: functional
[9] = Inhibition of EGFR expression in human MCF7 cells assessed as positive expression region (M2) at 100 nM incubated for 24 hrs by flow cytometry analysis (reference value: 99.36%); format: functional
[10] = Inhibition of EGFR expression in human MCF7 cells assessed as negative expression region (M1) at 100 nM incubated for 24 hrs by flow cytometry analysis (reference value: 0.66%); format: functional
[11] = Inhibition of EGFR expression in human MCF7 cells assessed as positive expression region (M2) at 25 nM incubated for 24 hrs by flow cytometry analysis (reference value: 99.36%); format: functional
[12] = Inhibition of HER2 expression in human MCF7 cells assessed as positive expression region (M2) at 50 nM incubated for 24 hrs by flow cytometry analysis (reference value: 99.09%); format: functional
[13] = Inhibition of HER2 expression in human MCF7 cells assessed as negative expression region (M1) at 25 nM incubated for 24 hrs by flow cytometry analysis (reference value: 0.98%); format: functional
[14] = Inhibition of HER2 expression in human MCF7 cells assessed as negative expression region (M1) at 50 nM incubated for 24 hrs by flow cytometry analysis (reference value: 0.98%); format: functional
[15] = Inhibition of EGFR expression in human MCF7 cells assessed as negative expression region (M1) at 50 nM incubated for 24 hrs by flow cytometry analysis (reference value: 0.66%); format: functional
[16] = Inhibition of HER2 expression in human MCF7 cells assessed as positive expression region (M2) at 100 nM incubated for 24 hrs by flow cytometry analysis (reference value: 99.09%); format: functional
[17] = Inhibition of HER2 expression in human MCF7 cells assessed as positive expression region (M2) at 500 nM incubated for 24 hrs by flow cytometry analysis (reference value: 99.09%); format: functional
[18] = Inhibition of EGFR expression in human MCF7 cells assessed as negative expression region (M1) at 25 nM incubated for 24 hrs by flow cytometry analysis (reference value: 0.66%); format: functional
[19] = Inhibition of HER2 expression in human MCF7 cells assessed as positive expression region (M2) at 25 nM incubated for 24 hrs by flow cytometry analysis (reference value: 99.09%); format: functional
[20] = Inhibition of EGFR expression in human MCF7 cells assessed as positive expression region (M2) at 1000 nM incubated for 24 hrs by flow cytometry analysis (reference value: 99.36%); format: functional
[21] = Inhibition of EGFR expression in human MCF7 cells assessed as negative expression region (M1) at 1000 nM incubated for 24 hrs by flow cytometry analysis (reference value: 0.66%); format: functional
[22] = Inhibition of HER2 expression in human MCF7 cells assessed as positive expression region (M2) at 1000 nM incubated for 24 hrs by flow cytometry analysis (reference value: 99.09%); format: functional
[23] = molecular target: Epidermal growth factor receptor (Homo sapiens, UniProt P00533); assay: Inhibition of wild type EGFR (unknown origin) incubated for 40 mins in presence of ATP by kinase glo max assay
Chain of Epidermal growth factor receptor (P00533 whole entry): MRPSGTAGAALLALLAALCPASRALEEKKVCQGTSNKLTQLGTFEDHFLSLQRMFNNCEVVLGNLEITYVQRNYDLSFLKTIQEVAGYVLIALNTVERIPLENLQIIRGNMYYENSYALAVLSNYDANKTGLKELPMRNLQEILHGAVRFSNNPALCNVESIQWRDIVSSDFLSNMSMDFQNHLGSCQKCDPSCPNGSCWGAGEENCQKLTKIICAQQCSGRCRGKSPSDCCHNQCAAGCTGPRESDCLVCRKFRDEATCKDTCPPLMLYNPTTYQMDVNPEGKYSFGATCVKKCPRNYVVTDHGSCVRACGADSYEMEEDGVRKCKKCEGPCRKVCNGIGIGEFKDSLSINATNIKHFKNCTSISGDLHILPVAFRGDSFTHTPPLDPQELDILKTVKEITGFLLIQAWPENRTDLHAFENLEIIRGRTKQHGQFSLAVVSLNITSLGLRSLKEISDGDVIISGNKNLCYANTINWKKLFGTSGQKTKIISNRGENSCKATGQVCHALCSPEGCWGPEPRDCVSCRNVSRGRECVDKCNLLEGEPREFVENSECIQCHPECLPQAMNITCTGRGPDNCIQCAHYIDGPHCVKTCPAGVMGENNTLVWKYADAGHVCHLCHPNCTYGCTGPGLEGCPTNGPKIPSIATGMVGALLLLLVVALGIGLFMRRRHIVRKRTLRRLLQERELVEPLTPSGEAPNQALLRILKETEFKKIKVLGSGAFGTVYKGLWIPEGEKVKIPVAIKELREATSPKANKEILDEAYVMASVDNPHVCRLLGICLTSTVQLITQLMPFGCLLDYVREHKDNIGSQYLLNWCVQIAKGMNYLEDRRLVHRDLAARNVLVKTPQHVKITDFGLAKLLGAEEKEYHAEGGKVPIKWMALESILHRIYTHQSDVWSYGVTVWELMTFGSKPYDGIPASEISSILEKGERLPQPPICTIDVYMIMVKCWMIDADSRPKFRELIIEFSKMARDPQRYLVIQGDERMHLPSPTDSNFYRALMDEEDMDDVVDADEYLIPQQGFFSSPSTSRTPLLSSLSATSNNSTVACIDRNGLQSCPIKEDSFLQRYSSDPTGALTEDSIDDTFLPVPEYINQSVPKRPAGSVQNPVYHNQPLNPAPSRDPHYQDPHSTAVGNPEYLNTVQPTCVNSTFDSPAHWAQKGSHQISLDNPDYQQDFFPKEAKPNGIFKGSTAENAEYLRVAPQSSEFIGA

COc1ccc(NC(=O)C2=C(C)NC(=O)NC2c2ccc(C)cc2)c(OC)c1 (stereo not drawn)
IC50 [1]: 33.5 µM
IC50 at 3 days [2]: 60 µM

COc1ccc(NC(=O)C2=C(C)NC(=O)NC2c2ccccc2[N+](=O)[O-])c(OC)c1 (stereo not drawn)
IC50 [1]: 40.1 µM
IC50 at 3 days [2]: 55.3 µM

COc1ccc(NC(=O)C2=C(C)NC(=O)NC2c2ccc(O)c(OC)c2)c(OC)c1 (stereo not drawn)
IC50 [1]: 16.1 µM
IC50 at 3 days [2]: 42.9 µM

COc1ccc(NC(=O)C2=C(C)NC(=S)NC2c2cccc(O)c2)c(OC)c1 (stereo not drawn)
IC50 [1]: 34.8 µM
IC50 at 3 days [2]: 69.2 µM

COc1ccc(NC(=O)C2=C(C)NC(=O)NC2c2ccc(OCc3ccccc3)c(OC)c2)c(OC)c1 (stereo not drawn)
IC50 [1]: 9.38 µM
inhibition at 0.1 µM [3]: 88.7%
inhibition at 0.5 µM [4]: 9.15%
inhibition at 1 µM [5]: 96.9%
inhibition at 0.05 µM [6]: 33.8%
inhibition at 0.5 µM [7]: 91.1%
inhibition at 0.5 µM [8]: 95%
inhibition at 0.1 µM [9]: 16.1%
inhibition at 0.1 µM [10]: 84.3%
inhibition at 0.025 µM [11]: 63.2%
inhibition at 0.05 µM [12]: 22.4%
inhibition at 0.025 µM [13]: 57.5%
inhibition at 0.05 µM [14]: 77.9%
inhibition at 0.05 µM [15]: 66.7%
inhibition at 0.1 µM [16]: 11.6%
inhibition at 0.5 µM [17]: 5.16%
inhibition at 0.025 µM [18]: 37.6%
inhibition at 0.025 µM [19]: 43%
inhibition at 1 µM [20]: 1.49%
inhibition at 1 µM [21]: 98.6%
inhibition at 1 µM [22]: 3.21%
IC50 at 3 days [2]: 18.4 µM

COc1ccc(NC(=O)C2=C(C)NC(=O)NC2c2cccc(O)c2)c(OC)c1 (stereo not drawn)
IC50 [1]: 30.4 µM
IC50 at 3 days [2]: 55.7 µM

CS(=O)(=O)CCNCc1ccc(-c2ccc3ncnc(Nc4ccc(OCc5cccc(F)c5)c(Cl)c4)c3c2)o1 [LAPATINIB]
IC50 [1]: 3.38 µM
inhibition at 0.1 µM [3]: 93%
inhibition at 0.1 µM [9]: 5.88%
inhibition at 0.1 µM [10]: 94.3%
inhibition at 0.1 µM [16]: 7.15%
IC50 at 3 days [2]: 19.3 µM

COc1ccc(NC(=O)C2=C(C)NC(=O)NC2c2ccc(OC)c(OC)c2)c(OC)c1 (stereo not drawn)
IC50 [1]: 14.2 µM
inhibition at 0.1 µM [3]: 79.3%
inhibition at 0.5 µM [4]: 5.73%
inhibition at 1 µM [5]: 93.4%
inhibition at 0.05 µM [6]: 60%
inhibition at 0.5 µM [7]: 94.4%
inhibition at 0.5 µM [8]: 89.9%
inhibition at 0.1 µM [9]: 32.5%
inhibition at 0.1 µM [10]: 68.3%
inhibition at 0.025 µM [11]: 82.2%
inhibition at 0.05 µM [12]: 36.8%
inhibition at 0.025 µM [13]: 32.7%
inhibition at 0.05 µM [14]: 63.8%
inhibition at 0.05 µM [15]: 40.2%
inhibition at 0.1 µM [16]: 21%
inhibition at 0.5 µM [17]: 10.3%
inhibition at 0.025 µM [18]: 18.1%
inhibition at 0.025 µM [19]: 67.9%
inhibition at 1 µM [20]: 3.42%
inhibition at 1 µM [21]: 96.7%
IC50 [23]: 0.0698 µM
inhibition at 1 µM [22]: 6.78%
IC50 at 3 days [2]: 30.1 µM

COc1ccc(NC(=O)C2=C(C)NC(=O)NC2c2ccccc2O)c(OC)c1 (stereo not drawn)
IC50 [1]: 30.1 µM
IC50 at 3 days [2]: 45.3 µM

COc1ccc(NC(=O)C2=C(C)NC(=O)NC2c2ccc(O)cc2)c(OC)c1 (stereo not drawn)
IC50 [1]: 29.3 µM
IC50 at 3 days [2]: 55.2 µM

COc1ccc(NC(=O)C2=C(C)NC(=S)NC2c2ccc(OC)c(OC)c2)c(OC)c1 (stereo not drawn)
IC50 [1]: 17.3 µM
IC50 at 3 days [2]: 43.9 µM

COc1ccc(NC(=O)C2=C(C)NC(=S)NC2c2ccc(O)c(OC)c2)c(OC)c1 (stereo not drawn)
IC50 [1]: 20.3 µM
IC50 at 3 days [2]: 42.5 µM

COc1ccc(NC(=O)C2=C(C)NC(=O)NC2c2ccc(Cl)cc2)c(OC)c1 (stereo not drawn)
IC50 [1]: 32.4 µM
IC50 at 3 days [2]: 62.7 µM

COc1ccc(NC(=O)C2=C(C)NC(=O)NC2c2cccc(Cl)c2)c(OC)c1 (stereo not drawn)
IC50 [1]: 38.2 µM
IC50 at 3 days [2]: 73.4 µM

COc1ccc(NC(=O)C2=C(C)NC(=S)NC2c2ccc(Br)cc2)c(OC)c1 (stereo not drawn)
IC50 [1]: 37.5 µM
IC50 at 3 days [2]: 61.2 µM

COc1ccc(NC(=O)C2=C(C)NC(=S)NC2c2ccc(Cl)cc2)c(OC)c1 (stereo not drawn)
IC50 [1]: 38.7 µM
IC50 at 3 days [2]: 48.3 µM

COc1ccc(NC(=O)C2=C(C)NC(=S)NC2c2ccccc2)c(OC)c1 (stereo not drawn)
IC50 [1]: 45.3 µM
IC50 at 3 days [2]: 53.4 µM

COc1ccc(NC(=O)C2=C(C)NC(=O)NC2c2ccc(Cl)cc2Cl)c(OC)c1 (stereo not drawn)
IC50 [1]: 32.4 µM
IC50 at 3 days [2]: 63.5 µM

COc1ccc(C2NC(=O)NC(C)=C2C(=O)Nc2ccc(OC)cc2OC)cc1 (stereo not drawn)
IC50 [1]: 24.3 µM
IC50 at 3 days [2]: 56.2 µM
